How the values were obtained:
[1] = Hydrolysis stability at different pH (UV-vis); assay type: physicochemical; settings: phosphate buffer, pH = 5 and pH = 7; absorbance 250–500 nm
Protocol: Investigations of potential drug pharmacokinetics are an important part of the evaluation of its potential efficacy and applicability. On the base level, this can be studied in vitro as a hydrolysis stability assay at different pH levels. […] The stability of compounds was estimated as an optical density drop at λ = 250–500 nm at pH = 5 and pH = 7 (Figure 3 and Figure 4).
The stability of synthesized compounds was estimated spectrophotometrically. To 1.5 mL of either phosphate buffer with pH = 5.0 or phosphate buffer with pH = 7.4, 300 µL of 2 mM test solution in MeOH was added. Then adsorption spectra at λ = 250–500 nm were recorded for 20 h. Graphs were built using OriginPro 2019b.

CC(C)(C)c1cc(C(=O)N/N=C/c2ccccc2O)cc(C(C)(C)C)c1O [Compound 1, Di-tert-butyl-4-hydroxy-N′-(2-hydroxybenzylidene)-benzohydrazine]
Time after which decomposition (hydrolysis) is seen [1]: approximately 1 h
melting point: 265 to 269 °C
